{"source": "patent US9629834B2", "about": "“Medicinal composition for inhibiting formation and/or enlargement of cerebral aneurysm or shrinking same” (KYOTO UNIVERSITY, priority 2013, dated 2017)", "system": "macrophages (F4/80-positive cells)", "assay": "Infiltration of macrophages into cerebral aneurysm formation site (F4/80 immunostaining)", "format": "in vivo, SD rat", "details": "Day 1 to Day 27, Day 28, vs vehicle group, FIG. 3B", "procedure": "A rat model of cerebral aneurysm was prepared according to the method disclosed on the literature by Hashimoto et al. (Surgical Neurology 1978, Vol. 10, p. 3-8). Namely, 50 mg/kg of pentobarbital was administrated intraperitoneally to a 7-week-old male SD rat, and the left common carotid artery and the left renal artery were ligated by using 10-0 nylon thread under anesthesia (this is referred to as the surgery for inducing cerebral aneurysm). From the day after surgery (Day 1), the rat was reared with being fed a high-salt diet. During a rearing period, the rat was given free access to water. Forced oral administration of 0.03 mg/5 mL or 0.1 mg/5 mL of the suspension of Compound 1 to the cerebral aneurysm model was conducted once a day at a dose of 5 mL/kg from 1 day after surgery (Day 1) to 27 days after surgery (Day 27). 28 Days after surgery (Day 28), the treatments on the right olfactory artery/anterior cerebral artery bifurcation containing cerebral aneurysm were conducted by using similar procedures to the steps 1) to 5) of Reference Example 2, and a section of the bifurcation was prepared. […] Under the observation with a confocal microscope, the number of macrophages was counted in an area of 100 μm square centered around the cerebrovascular bifurcation where cerebral aneurysm developed. The measurement was conducted on five rats and the mean value was calculated. […]", "data": [{"smiles": "C[C@H](Oc1ccc(-c2nc(-c3ccc4[nH]cnc4c3)no2)cc1C(F)(F)F)C(F)(F)F.Cl", "note": "[Compound 1, 5-{5-[3-(trifluoromethyl)-4-{[(2S)-1,1,1-trifluoropropan-2-yl]oxy}phenyl]-1,2,4-oxadiazol-3-yl}-1H-benzimidazole hydrochloride]", "values": [{"measurement": "number of macrophages at the cerebral aneurysm formation site", "setting": "0.03 mg/kg oral once a day", "result": "decreased as compared to the number of macrophages in the vehicle group"}, {"measurement": "number of macrophages at the cerebral aneurysm formation site", "setting": "0.1 mg/kg oral once a day", "result": "decreased as compared to the number of macrophages in the vehicle group"}]}]}
